Data from patent US20030100477A1, “Medicinal compositions for suppressing beta-amyloid production” (priority 2002, published 2003).

Columns and labels:
[1] = tested on: APP(Thr668) phosphorylation; experiment: APP(Thr668) phosphorylation by western blotting in APP695 adenovirus-infected hippocampus primary culture nerve cells; assay type: cell-based, rat; conditions: for APP phosphorylation suppressing action / concentration at which APP phosphorylation suppressing action was found: rat hippocampus primary culture nerve cells, human APP695 adenovirus, 1 day of treatment; for expressed amount of total APP detected with anti-APP antibody 22C11: same cells and treatment, Alsterpaullone 10 μM, Roscovitine 50 μM
Experimental: The APP gene-containing recombinant adenovirus vector was converted into linear strand by PacI treatment and introduced into HEK293 cells by the Lipofectamine method (LIFE TECHNOLOGIES), and 3 to 5 days thereafter when cells were pealed off from the plate, all of the cells were recovered. The recombinant adenovirus was obtained from the supernatant by repeating freezing-thawing step of the cells. The thus obtained recombinant adenovirus was prepared in a large amount by repeating infection of HEK293 cells and then concentrated and purified by the CsCl method and used in the test.
The thus obtained PVDF membrane was soaked in Block Ace (Daiichi Pure Chemicals) at 4° C. overnight to carry out blocking. […] The anti-serum obtained by the immunization was used by subjecting to adsorption treatment using an immunogen peptide before introduction of phosphate group and then purifying by affinity chromatography using the phosphate group-introduced antigen peptide. Also, an anti-APP monoclonal antibody 22C11 (Roche Molecular Biochemicals) was used in the determination of total APP amount (combined APP amount of phosphorylated state of APP and non-phosphorylated state of APP). […] After completion of the reaction, washing with PBS-T at room temperature for 10 minutes was repeated four times and then this was subjected to the reaction with a secondary antibody. As the secondary antibody, 20,000 times diluted HRP-labeled anti-rabbit and anti-mouse IgG antibodies (Amersham Pharmacia Biotech) were used.

Aβ1-40 production = experiment: Aβ1-40 production, sandwich ELISA of culture supernatant of APP695 adenovirus-infected hippocampus primary culture nerve cells
Experimental: The fetus was sterilized with ethanol for disinfection in a clean bench, the total brain was extracted and recovered in a dish containing a serum-free medium (SUMILON, Sumitomo Bakelite), and the hippocampus was extracted using a precision pincette under a stereoscopic microscope. The hippocampus was transferred into a 50 ml tube, tissues were precipitated by standing to discard the supernatant by aspirating and a cell dispersing solution (PBS containing 1% papain, 150 U/ml DNase I, 0.02% L-cysteine, 0.02% BSA and 0.5% glucose) was added thereto, and the mixture was incubated at 37° C. for 15 minutes and then centrifuged (1,000 rpm, 4° C., 5 min). The supernatant was removed by aspiration, 10 ml of the serum-free medium was added to the sediment, pipette treatment was carried out several times, and then cell masses were removed using a filter to obtain a cell suspension. The number of cells was counted using trypan blue, and 1.5×10^5 of the cells were inoculated into a poly-L-lysine-coated 48 well culture plate. In order to effect sufficient differentiation, they were cultured at 37° C. for 10 days in a CO2 incubator and then used in the test.
Infection with adenovirus was carried out on the 10th day of the culturing. A virus suspension of 1.5×10^8 particles was suitably diluted and added to a medium to an MOI (multiplicity of infection) value of 1,000 based on 1.5×10^5 cells. A sample was recovered on the 4th day of the infection.
Culture supernatants recovered 24 hours after the addition of compounds to be tested were used as the samples for Aβ production measurement. Amount of Aβ in each supernatant was determined by sandwich ELISA. Firstly, an anti-Aβ monoclonal antibody 6E10 (Wako) diluted to 10 μg/ml with 100 mM phosphate buffer was dispensed in 50 μl/well portions into a plate for ELISA (Maxisorp, Nunc) and allowed to stand overnight at 4° C. to effect adhesion of the 6E10 antibody to the plate. The antibody was recovered on the next day, and 200 μl of Block Ace was added to each well to carry out blocking at 4° C. overnight or more. […] The Aβ for calibration curve preparation was prepared in the following manner. […] A 10 μl portion of the stock solution was transferred into a tube, HFIP was evaporated using a vacuum concentrator and then the residue was again dissolved in 10 μl of DMSO to an Aβ concentration of 1 mg/ml. Serial dilutions of the solution for Aβ calibration curve measurement were prepared within the range of from 0.2 to 10 ng/ml. The plate after the reaction with a sample or Aβ for calibration curve preparation was washed 4 times with the plate washer and then allowed to react with primary antibodies. Polyclonal antibodies R163 (Aβ1-40 specific antibody) and R165 Aβ1-42 specific antibody), which specifically recognize C-terminus of Aβ, were used as the primary antibodies. […] Each antibody was diluted 1,000 times with TBS-T containing 25% Block Ace, dispensed in 60 μl/well portions into the plate and then allowed to undergo the reaction at room temperature for 2 hours. After the reaction, the plate was washed 4 times using the plate washer and then the reaction with a secondary antibody was carried out. An HRP-labeled anti-rabbit IgG antibody was used as the secondary antibody, diluted 8,000 times with TBS-T containing 25% Block Ace and dispensed in 60 μl/well portions, and then the reaction was carried out at room temperature for 2 hours. After completion of the reaction, the plate was washed 4 times using the plate washer and then chemiluminescence by a POD chemiluminescence reagent (Boehringer Mannheim) was measured by ML3000 Plate Reader (Dynatech Laboratories).

Cdk5 and p25 = target: T1, Cdk5 and p25 (Homo sapiens, UniProt Q00535); experiment: Cdk5 kinase inhibitory activity, SPA method with biotinylated histone and 33P-ATP; assay type: biochemical; conditions: recombinant human Cdk5/p25 1:1, SPA method
T1 construct: Complete length of the human Cdk5 gene was amplified from total RNA; made in house; host or cells: Sf9 insect cells (baculovirus)
Experimental: The total RNA was obtained by adding 1 ml of ISOGEN reagent (Nippon Gene) to 1×10^6 cells, mixing the resulting lysate with ⅕ volume of chloroform, centrifuging the mixture at 15,000 rpm for 10 minutes, mixing the resulting supernatant with ½ volume of 2-propanol and further centrifuging the mixture at 15,000 rpm for 20 minutes. The thus obtained RNA was dissolved in water and, after measurement of its concentration, subjected to PCR reaction (Titans one tube RT-PCR kit (Boehringer Mannheim)). […] Each of the genes was introduced into a Bacmid preparation vector pFASTBac-Hta (Gibco BRL) which had been designed such that His-tag is added to N-terminus, making use of the HindIII and BamHI sites designed in the primers. Each of the genes introduced into pFASTBac was introduced into DH10Bac to carry out recombination in E. coli, thereby obtaining respective recombinant Bacmids. The thus obtained Bacmid was introduced into Sf9 cells using cellfectin reagent (Gibco BRL) to obtain baculovirus. […] Purification of the recombinant proteins was carried out making use of the 6× His tag added to the N-terminus.
After though washing with the buffer A, this was washed with a buffer B (20 mM Tris-HCl, 1 M KCl, 10 mM 2-ME, 10% glycerol). Finally, fractions eluted with a buffer C (20 mM Tris-HCl, 100 mM KCl, 100 mM imidazole, 10 mM 2-ME, 10% glycerol) were recovered, dialyzed against a sample solution (50 mM HEPES-KOH, 10 mM MgCl2, 2.5 mM EGTA, 0.1 mM PMSF) and used as a purified preparation.
A 1:1 mixture of the purified Cdk5 protein and purified p25 obtained above was used as the enzyme source at the time of kinase activity measurement. Histone HI (Sigma) was biotinylated and used as the substrate. Biotinylated histone was prepared by allowing histone to react with 10 equivalents of biotin (Ez-link Sulfo-NHS-LC-Biotin, Pierce) as molar ratio in the presence of 50 mM sodium bicarbonate at room temperature for 6 hours. Free biotin was removed by carrying out dialysis using TBS, and the resulting solution was used as the stock solution. Measurement of kinase activity was carried out in accordance with the SPA method (Amersham). […] This was allowed to stand at room temperature for 15 minutes and centrifuged (1,700 rpm, 2 min), and then amount of the isotope incorporated in the substrate was measured by Topcount […].

Aβ1-42 production = experiment: Aβ1-42 production, sandwich ELISA of culture supernatant of APP695 adenovirus-infected hippocampus primary culture nerve cells; assay type: cell-based, rat; conditions: culture supernatant after 1 day of treatment, control DMSO (FIG. 4)
[2] = culture supernatant after 1 day of treatment, control DMSO (FIG. 3, FIG. 5)

T1 sequence (Q00535 2-292): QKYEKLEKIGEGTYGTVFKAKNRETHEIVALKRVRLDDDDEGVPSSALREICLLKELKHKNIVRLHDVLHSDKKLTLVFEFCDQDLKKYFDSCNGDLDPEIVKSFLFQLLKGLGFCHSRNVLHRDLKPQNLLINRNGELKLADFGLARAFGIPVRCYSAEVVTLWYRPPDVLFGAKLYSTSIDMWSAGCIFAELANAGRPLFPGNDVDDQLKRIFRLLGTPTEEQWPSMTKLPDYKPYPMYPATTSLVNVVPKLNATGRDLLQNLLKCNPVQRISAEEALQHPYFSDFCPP
T1 sequence (Q15078 99-307 partner limits assumed): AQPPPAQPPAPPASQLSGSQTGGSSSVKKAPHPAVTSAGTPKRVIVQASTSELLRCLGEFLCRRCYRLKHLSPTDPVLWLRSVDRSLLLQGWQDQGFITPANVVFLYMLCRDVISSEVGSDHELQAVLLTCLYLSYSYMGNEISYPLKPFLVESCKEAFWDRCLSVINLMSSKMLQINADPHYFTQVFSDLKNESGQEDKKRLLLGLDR

| Molecule | APP phosphorylation suppressing action [1] | Aβ1-40 production (Aβ1-40 production; [2]) | Cdk5 inhibitory activity (Cdk5 and p25) | concentration at which APP phosphorylation suppressing action was found [1] [µM] | expressed amount of total APP detected with anti-APP antibody 22C11 [1] | Aβ1-42 production (Aβ1-42 production) | Aβ1-40 production (Aβ1-40 production; cells on 7th day co-infected with APP695 adenovirus and Cdk5 D144N adenovirus, supernatant 2 days later, control GFP adenovirus) |
| --- | --- | --- | --- | --- | --- | --- | --- |
| CCn1cnc2c(Nc3cccc(OC)c3)nc(N[C@@H]3CCCC[C@@H]3N)nc21 [A] | found | confirmed | verified the Cdk5 inhibitory activity |  |  |  |  |
| CCn1cnc2c(Nc3cccc(OC)c3)nc(NC3CCC(N)CC3)nc21 (stereo not drawn) [B] | found | confirmed | verified the Cdk5 inhibitory activity |  |  |  |  |
| O=C1Cc2c([nH]c3ccc([N+](=O)[O-])cc23)-c2ccccc2N1 [Alsterpaullone, reference compound] |  | suppressed | verified the Cdk5 inhibitory activity | 10 | no changes | suppressed |  |
| CCn1cnc2c(Nc3cccc(OC)c3)nc(N[C@H]3CC[C@H](O)CC3)nc21 [C] | found | confirmed | verified the Cdk5 inhibitory activity |  |  |  |  |
| Cdk5 D144N: dominant negative mutant of Cdk5 (144th aspartic acid converted into asparagine), expressed from adenovirus vector |  |  |  |  |  |  | suppressed |
| N[C@H]1CC[C@H](Nc2nc(Nc3cccc(Cl)c3)c3ncn(C4CCCC4)c3n2)CC1 [D] | found | confirmed | verified the Cdk5 inhibitory activity |  |  |  |  |
| CC[C@H](CO)Nc1nc(NCc2ccccc2)c2ncn(C(C)C)c2n1 [Roscovitine, reference compound] |  | confirmed |  | 50 | no changes |  |  |
